pIC50, pKi: −log10 of the molar value. “And” between values parts separate entries of the source, which are not always exact repeats. Equal entries are not always repeated. “Also recorded” adds a separate entry of the source. No end group written: not given here.
Assays:
prothrombinase [1] = target: T1, prothrombinase (Homo sapiens, UniProt P00734); assay: Assay measuring thrombin formation (prothrombinase inhibition by peptides, DAPA fluorescence); format: biochemical
T1 construct: purchased Haematologic Technologies Inc. (Essex Junction, Vt.)
Procedure: Assay measuring thrombin formation. The formation of thrombin was analyzed using the fluorescent thrombin inhibitor DAPA as described using a Perkin Elmer LS-50B Luminescence Spectrometer (Perkin-Elmer LLC, Norwalk Conn.) with λex=280 nm, λem=550 nm and a 500 nm long pass filter in the emission beam (Schott KV-500). […] In all cases peptides were preincubated with factor tor Va prior to the assay as described in the legend to the figures. The final concentration of factor tor Va in the mixture was 4 nM with factor Xa at 10 nM, prothrombin at 350 nM, DAPA at 700 nM, in the presence of PCPS vesicles (10 μM). The initial rate of thrombin formation (nM IIa·min^−1) was calculated as described during the initial 5-10 sec of the reaction. To verify if the peptides have any effect on the active-site of thrombin, control experiments were performed as follows: a given peptide (at 100 μM) was incubated in the assay buffer containing DAPA (700 nM); the base line was monitored for 30 sec; thrombin (350 nM) was then added to the mixture and the fluorescent intensity resulting from the complexation of DAPA with the active site of thrombin was monitored for 60 sec. The slope of the reaction measuring thrombin formation in the presence of a given peptide during the first 5 sec was calculated and compared to the slope of a reaction obtained in the absence of peptide. It is noteworthy that under the conditions employed the thrombin-DAPA interaction occurred fast and the calculated slope of the reaction was sensitive to all parameters used. […] All experiments were performed in triplicates or as indicated. The concentration of each peptide given in the figures and figure legends is their final concentration in the assay. […] In some cases the data were also analyzed and plotted using DeltaGraph (DeltaPoint, Monterey, Calif.).
Specifically, peptides were incubated with factor tor Va as described herein at a fixed concentration (100 μM). The percent of factor tor Va cofactor activity was calculated by comparing the activity of prothrombinase in the presence of a given peptide to the activity of prothrombinase determined in a control reaction in the absence of peptide and in the presence of factor Xa. […] The control peptide represents a pentadecapeptide from the middle portion of factor tor Va heavy chain (P15H) (SEQ ID NO. 22). […] All other peptides from region 680-709 had no significant effect on prothrombinase activity.
HC3 represents amino acid sequence 690-699 of factor tor Va heavy chain; HC4 contains the sequence 695-704 of human factor tor Va heavy chain; P15H represents amino acid sequence 337-351 from the middle portion of human factor tor Va heavy chain. […] The concentration of each peptide given on the x axis represents its final concentration in the prothrombinase mixture. […] Thus, both peptides show similar inhibitory potential.

[2] = target: T2, [OG488]-EGR-hXa-human factor tor Va (Homo sapiens, UniProt P00742); assay: Fluorescence anisotropy of preformed membrane-bound [OG488]-EGR-hXa-factor Va complex; format: binding; conditions: up to 300 μM peptide
T2 construct: purchased Haematologic Technologies Inc. (Essex Junction, Vt.)
Procedure: Fluorescence Anisotropy measurements. Fluorescence anisotropy of [OG488]-EGR-hXa was measured using a Perkin Elmer LS-50B Luminescence Spectrometer in L-format as recently described. Anisotropy measurements were performed in a quartz cuvette under constant stirring (low) with λex=490 nm, λem=520 nm with a long pass filter (Schott KV-520) in the emission beam. […] The concentration of peptide given in each graph is the final concentration of the peptide in the assay mixture. […] In some cases the data were also plotted using DeltaGraph (DeltaPoint, Monterey, Calif.).
HC3 and HC4 were also tested for their ability to interfere with the fluorescence anisotropy of a preformed complex composed of membrane-bound [OG488]-EGR-hXa-human factor tor Va as described. […] The peptides must thus impair another function of the cofactor within prothrombinase.

[3] = target: T3, active-site-immobilized thrombin (Homo sapiens, UniProt P00734); assay: Direct binding of the peptides to thrombin-agarose (chromatography); conditions: 400 μg peptide, 2.5 ml column, elution 2M NaCl
T3 construct: Factor Xa cleaves prothrombin to form thrombin; purchased Haematologic Technologies Inc. (Essex Junction, Vt.)
Procedure: Direct binding of the peptides to thrombin. Thrombin was immobilized onto agarose through the active site as described. Peptide solutions of HC1-HC5 (SEQ ID NO. 2-6, respectively), D13R (SEQ ID NO. 21), DYDYQ (SEQ ID NO. 11), and P15H (SEQ ID NO. 22) were dissolved in water to a given concentration and then diluted in 20 mM Hepes, 0.1 M NaCl, pH 7.4 in a manner that 400 μg was contained in each starting solution. In control experiments it was determined that the maximum amount of peptide that could be retained by the thrombin-agarose column was 400 μg. Since some of the peptides contain aromatic amino acid residues, their concentration was also measured by optical density.
Mass spectrometry instruments and conditions. The identity of all peptides found in the flow-through or the elution of the thrombin-agarose column was verified by mass spectrometry. Since the peptides were in a buffer solution, we used Liquid Chromatography/Mass Spectrometry (LC/MS) for their identification. In this procedure peptides are first separated from the salt content of the buffer using an HPLC system (HP 1100, HPLC gradient system, Agilent Technologies, Palo Alto Calif.) with a C18 column (1 mm×15 cm, GraceVydac, Hesperia Calif.) with buffers A (0.3% acetic acid in water) and B (0.3% acetic acid in acetonitrile). The elution of the column was monitored with a Micromass Quatro II ESI-Triple Quadrupole Mass Spectrometer (Waters, Milford Mass.). The data were collected using a Compaq Professional Workstation AP200 (Hewlett-Packard, Palo Alto Calif.) and analyzed by the software MassLynx v3.3 (Waters, Milford Mass.).
Direct interaction of hirudin-like peptides from factor tor Va heavy chain With thrombin-agarose. To ascertain that the peptides of interest are inhibitory of prothrombinase activity and contain a binding site for thrombin, the interaction of all peptides with active-site-immobilized thrombin was studied in chromatographic experiments and is shown in FIG. 5. In FIG. 5, small scale chromatography of hirudin-like peptides was performed on a 2.5 ml thrombin-agarose. Each run represents 400 μg of peptide. This amount of peptide was determined to saturate the specific sites of thrombin of the column used (2.5 ml). Elution was performed with 2M NaCl and was started at the point indicated by the arrow (fraction #30). The presence of the peptides in the corresponding fractions was monitored by absorbance at 280 nm (shown on the y axis) and by LC/MS (inset). […] Specifically, these peptides were treated similarly to all other peptides and similar fractions were collected. Aliquots from fractions #7 and #35 from each separate experiment were submitted to LC/MS analysis as described herein (depicted by the hatched arrows at the bottom of the chromatogram). The results from tube #7 from three chromatograms are depicted. The data are presented as % intensity of the signal as a function of the mass of the peptide divided by the charge (m/z). FIG. 5A, HC1 (Mr calculated 1268); FIG. 5B, HC2 (Mr calculated 1132); FIG. 5C, HC5 (Mr calculated 1053). The spectrum of HC1 has two major peaks: at 635.5 and at 424, and one minor peak at 1270 (1268+1). The peak at 635.5 represents the peptide (mass/charge) with two positive charges ([…]) i.e. [(1268+2=1270)]/2=635 whereas, the peak at 424 represents HC1 with three positive charges ([…]) i.e. [(1268+3=1271)]/3=424. […] HC5 spectrum has two major peaks: one at 528 and one at 352. The peak at 528 represents the peptide with two positive charges ([…]) i.e. [(1053+2=1055)]/2=527.5 while, the other peak represents HC5 with three positive charges ([M+31-]^2+) i.e. [(1053+3=1056)]/3=352. The minor peak at 1054 represents the peptide with one charge. It is noteworthy, that in gas phase the number of protons attached to each peptide depends on the number (quantity) of basic residues contained in each peptide. […] Thus, HC1 and HC5 are more likely to bind two or three protons than HC2. […]

[4] = test system: factor V deficient plasma; assay: Clotting activity of recombinant factor V molecules
Procedure: Determination of factor V/tor Va clotting activity of the recombinant molecules. Cofactor activity of wild type and mutant molecules was measured in a clotting assay using factor V deficient plasma prior and after activation by thrombin (15 min, 37° C.) and RVV-V activator (2 hr, 37° C.) as described. The values were standardized to the percentage of control. A linear semi-log graph was constructed using known concentrations of purified factor V (U/ml as a function of clotting time). The assay endpoint was determined by visualization of the fibrin clot. The activity of the factor VNa solution (U/ml) was determined by extrapolation from the graph. The concentration of the recombinant molecules was determined by a recently described ELISA. Finally, the numbers were combined to obtain the specific activity of the recombinant factor V solutions (U/mg).

prothrombinase [5] = assay: Prothrombinase assay using purified reagents and chromogenic substrate (cofactor activity of recombinant factor Va species); conditions: activated with RVV-V activator or factor Xa

T2 sequence (P00742 41-179 limits assumed): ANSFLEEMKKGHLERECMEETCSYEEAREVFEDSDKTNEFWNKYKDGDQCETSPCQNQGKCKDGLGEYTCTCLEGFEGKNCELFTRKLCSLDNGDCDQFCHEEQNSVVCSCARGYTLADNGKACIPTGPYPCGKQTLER
T2 sequence (P00742 235-488 limits assumed): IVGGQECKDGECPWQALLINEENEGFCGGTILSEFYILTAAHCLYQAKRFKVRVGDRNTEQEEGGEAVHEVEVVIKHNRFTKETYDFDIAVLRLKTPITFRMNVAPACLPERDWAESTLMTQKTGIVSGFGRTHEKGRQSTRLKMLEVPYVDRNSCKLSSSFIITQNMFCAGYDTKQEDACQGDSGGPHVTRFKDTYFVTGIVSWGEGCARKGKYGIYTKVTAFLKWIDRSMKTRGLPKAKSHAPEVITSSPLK

Row | pKi (prothrombinase [1]; calculated from IC50=Ki(1+S0/Km), Km 0.4 μM, S0 350 nM prothrombin, read-out: Ki of prothrombinase inhibition) | pIC50 (prothrombinase [1]; factor Va 4 nM, factor Xa 10 nM, prothrombin 350 nM, PCPS 10 μM, peptide preincubated with factor Va) | type of inhibition of prothrombinase with respect to prothrombin (prothrombinase [1]; kinetic analyses, increasing prothrombin and peptide) | Substance | effect on prothrombinase / factor Va cofactor activity at fixed concentration (prothrombinase [1]; peptide 100 μM) | interference with binding of factor Va to [OG488]-EGR-hXa (anisotropy) [2] | interaction with immobilized thrombin (thrombin-agarose) [3] | ability to promote clotting [4] | Activity ([4]; factor V species at 2.5 nM) [U/ml] | Specific activity ([4]; factor V species at 2.5 nM) [U/mg] | clotting time ([4]; factor V species at 2.5 nM) [s] | times less cofactor activity than wild type molecule activated under similar conditions (prothrombinase [5]) [times]
1 | 5.20 and ~5.20 | 4.92 and ~4.92 | competitive inhibitors | EESDADYDYQ [HC3] | inhibited prothrombinase; also recorded: complete inhibition | No significant decrease; also recorded: unable to interfere with the binding of factor tor Va | eluted from the column with high-salt buffer; also recorded: interact with immobilized thrombin | – | – | – | – | –
2 | – | – | – | Factor VaRVV^2K2F: quadruple mutant activated with RVV-V activator | – | – | – | unable to promote clotting | 0.002 | 2.4 | 73.1 ± 4 | ~22

— US20100267638A1, “EXOSITE-DIRECTED THROMBIN INHIBITORS” (CLEVELAND STATE UNIVERSITY, priority 2003, published 2010)
